# Source: patent US8741899B2, “(4-chloro-2-fluoro-N-(2-fluorophenyl)-5-[(8aR)-hexahydropyrrolo-[1,2-a]pyrazin-2(1H)-ylcarbonyl]-benzenesulfonamide, and pharmaceutically acceptable salts thereof” (AbbVie Inc., priority 2009, dated 2014)
# Biological target: T1, Human Cav3.2 Channels (Homo sapiens, UniProt O95180)
# T1 construct: expressed in transfected cells
# Assay: Electrophysiologic (whole-cell patch-clamp) assessment of calcium channel activity in HEK293 cells stably expressing hCav3.2
# Type: cell-based
# Conditions: −77 mV, geometric mean, read-out: Human Cav3.2 −77 mV IC50 (μM) GeoMean
# Procedure: (i) In Vitro Methods—Electrophysiologic Assessment of Calcium Channel Activity:
# Patch-clamp recordings were performed using HEK293 cells stably expressing hCav3.2. Cells were plated in T175 flasks and grown at 37° C. and under 5% CO2 to approximately 50% confluency. On the day of the experiment, cells were harvested with Detachin™ cell detachment solution (Genlantis, San Diego, Calif.) and maintained in serum-free culture medium supplemented with 25 mM HEPES up to several hours prior to experiment. Whole-cell patch-clamp recordings were obtained using extracellular saline consisting of (mM): 87.5 CsCl, 40 TEA-Cl, 5 CaCl2, 1 MgCl2, 10 HEPES, 10 glucose. The pH was adjusted to 7.2 with CsOH and the osmolarity was adjusted to approximately 310 mOsm with sucrose. Intracellular solution consisted of (mM): 112 CsCl, 27 CsF, 2 NaCl, 8.2 EGTA, 10 HEPES. Prior to an experiment 4 mM Mg2ATP was added and the pH was adjusted to 7.2 with CsOH with an osmolarity of approximately 290 mOsm. A two-pulse voltage protocol was utilized to assess compound inhibition. First, cells were held with an 8 s pre-pulse at −100 mV prior to a 160 ms test pulse to −30 mV. This was followed by an 8 s pre-pulse at approximately −75 mV prior to a […]. Increasing concentrations of antagonist were applied to individual cells in a multi-addition format with 5 minutes in each test concentration. For each cell, responses were normalized to dimethyl sulfoxide vehicle control to generate concentration-response curves.
# T1 sequence (O95180 whole entry): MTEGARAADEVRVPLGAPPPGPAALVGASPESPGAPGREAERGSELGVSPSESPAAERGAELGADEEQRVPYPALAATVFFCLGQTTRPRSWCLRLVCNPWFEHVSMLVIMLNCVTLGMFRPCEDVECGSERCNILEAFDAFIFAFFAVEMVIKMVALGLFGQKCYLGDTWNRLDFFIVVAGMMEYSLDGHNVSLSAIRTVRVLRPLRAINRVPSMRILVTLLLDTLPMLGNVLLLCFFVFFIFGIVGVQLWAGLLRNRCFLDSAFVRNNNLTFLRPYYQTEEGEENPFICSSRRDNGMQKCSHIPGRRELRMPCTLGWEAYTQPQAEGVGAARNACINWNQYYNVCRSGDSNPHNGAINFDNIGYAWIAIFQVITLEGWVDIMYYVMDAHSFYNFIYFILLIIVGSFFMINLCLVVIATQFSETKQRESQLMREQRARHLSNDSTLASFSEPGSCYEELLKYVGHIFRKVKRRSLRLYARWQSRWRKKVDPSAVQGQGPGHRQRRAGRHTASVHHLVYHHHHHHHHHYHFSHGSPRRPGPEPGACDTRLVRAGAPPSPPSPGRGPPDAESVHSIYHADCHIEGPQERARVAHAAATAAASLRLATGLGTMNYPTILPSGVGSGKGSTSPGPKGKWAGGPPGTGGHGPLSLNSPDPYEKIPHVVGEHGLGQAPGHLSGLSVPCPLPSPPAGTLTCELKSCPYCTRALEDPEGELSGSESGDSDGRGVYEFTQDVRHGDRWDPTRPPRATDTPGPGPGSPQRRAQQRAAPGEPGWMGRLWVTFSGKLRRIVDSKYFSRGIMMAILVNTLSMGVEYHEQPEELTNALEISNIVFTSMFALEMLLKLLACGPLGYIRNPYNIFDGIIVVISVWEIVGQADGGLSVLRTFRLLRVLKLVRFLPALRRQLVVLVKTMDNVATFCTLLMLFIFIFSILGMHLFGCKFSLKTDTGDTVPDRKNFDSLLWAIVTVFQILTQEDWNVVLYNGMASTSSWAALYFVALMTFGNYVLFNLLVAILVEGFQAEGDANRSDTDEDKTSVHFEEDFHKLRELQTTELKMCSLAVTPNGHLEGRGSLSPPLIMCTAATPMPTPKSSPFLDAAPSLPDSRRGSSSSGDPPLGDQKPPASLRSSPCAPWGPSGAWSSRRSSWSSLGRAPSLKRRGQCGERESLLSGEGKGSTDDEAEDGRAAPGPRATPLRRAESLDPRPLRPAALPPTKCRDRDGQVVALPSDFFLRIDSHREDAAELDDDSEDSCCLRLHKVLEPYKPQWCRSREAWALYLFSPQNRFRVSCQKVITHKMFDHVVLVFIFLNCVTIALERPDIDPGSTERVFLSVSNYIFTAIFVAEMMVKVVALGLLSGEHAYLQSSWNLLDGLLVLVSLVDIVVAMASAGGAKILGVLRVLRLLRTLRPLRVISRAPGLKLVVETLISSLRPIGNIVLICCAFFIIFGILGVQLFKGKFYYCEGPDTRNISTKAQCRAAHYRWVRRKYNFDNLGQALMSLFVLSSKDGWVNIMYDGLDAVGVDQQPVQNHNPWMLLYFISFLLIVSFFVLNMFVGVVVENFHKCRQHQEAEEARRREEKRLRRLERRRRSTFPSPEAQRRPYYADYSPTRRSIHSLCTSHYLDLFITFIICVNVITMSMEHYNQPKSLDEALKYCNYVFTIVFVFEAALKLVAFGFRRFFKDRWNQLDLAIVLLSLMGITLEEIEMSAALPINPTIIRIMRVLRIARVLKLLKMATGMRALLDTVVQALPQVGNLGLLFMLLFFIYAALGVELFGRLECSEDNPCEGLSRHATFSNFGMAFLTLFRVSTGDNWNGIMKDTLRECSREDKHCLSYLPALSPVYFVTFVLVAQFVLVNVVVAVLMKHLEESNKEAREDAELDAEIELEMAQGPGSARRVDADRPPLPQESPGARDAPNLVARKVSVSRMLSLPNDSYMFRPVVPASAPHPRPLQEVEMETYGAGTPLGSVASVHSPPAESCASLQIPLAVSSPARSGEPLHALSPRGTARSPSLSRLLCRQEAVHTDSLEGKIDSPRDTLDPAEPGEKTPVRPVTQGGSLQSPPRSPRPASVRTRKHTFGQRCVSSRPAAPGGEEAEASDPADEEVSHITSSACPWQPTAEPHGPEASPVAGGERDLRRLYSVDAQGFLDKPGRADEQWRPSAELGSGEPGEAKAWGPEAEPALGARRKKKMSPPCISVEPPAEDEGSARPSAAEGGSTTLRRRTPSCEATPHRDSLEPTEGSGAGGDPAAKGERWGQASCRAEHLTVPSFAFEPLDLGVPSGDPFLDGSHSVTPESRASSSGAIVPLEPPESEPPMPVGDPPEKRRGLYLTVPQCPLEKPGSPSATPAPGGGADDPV
row,IC50,SMILES
1,4.1 µM,"O=C(c1cccc(S(=O)(=O)Nc2ccccc2F)c1)N1CCN2CCCCC2C1 (centres unmarked) [Example 39, N-(2-fluorophenyl)-3-(octahydro-2H-pyrido[1,2-a]pyrazin-2-ylcarbonyl)benzenesulfonamide]"
2,4.1 µM,"O=C(c1cccc(S(=O)(=O)Nc2ccc(F)cc2)c1)N1CCC(N2CCCC2)CC1 [Example 40, N-(4-fluorophenyl)-3-[(4-pyrrolidin-1-ylpiperidin-1-yl)carbonyl]benzenesulfonamide]"
3,5 µM,"O=C(c1cccc(S(=O)(=O)Nc2ccccc2)c1)N1CCC(N2CCCC2)CC1 [Example 41, N-phenyl-3-[(4-pyrrolidin-1-ylpiperidin-1-yl)carbonyl]benzenesulfonamide]"
4,5.8 µM,"O=C(c1cccc(S(=O)(=O)Nc2ccc(C(F)(F)F)cc2)c1)N1CCC(N2CCCC2)CC1 [Example 42, 3-[(4-pyrrolidin-1-ylpiperidin-1-yl)carbonyl]-N-[4-(trifluoromethyl)phenyl]benzenesulfonamide]"
5,4.9 µM,"O=C(c1cccc(S(=O)(=O)Nc2cccc(C(F)(F)F)c2)c1)N1CCC(N2CCCC2)CC1 [Example 43, 3-[(4-pyrrolidin-1-ylpiperidin-1-yl)carbonyl]-N-[3-(trifluoromethyl)phenyl]benzenesulfonamide]"
6,4.9 µM,"O=C(c1cccc(S(=O)(=O)Nc2cccc(F)c2)c1)N1CCC(N2CCCC2)CC1 [Example 44, N-(3-fluorophenyl)-3-[(4-pyrrolidin-1-ylpiperidin-1-yl)carbonyl]benzenesulfonamide]"
7,> 10 µM,"O=C(c1cccc(S(=O)(=O)Nc2ccccc2F)c1)N1CCC(N2CCCC2)CC1 [Example 45, N-(2-fluorophenyl)-3-[(4-pyrrolidin-1-ylpiperidin-1-yl)carbonyl]benzenesulfonamide]"
8,1.8 µM,"O=C(c1cccc(S(=O)(=O)Nc2ccc(F)cc2)c1)N1CCC(N2CCCCC2)CC1 [Example 46, 3-(1,4′-bipiperidin-1′-ylcarbonyl)-N-(4-fluorophenyl)benzenesulfonamide]"
9,3.8 µM,"O=C(c1cccc(S(=O)(=O)Nc2ccccc2F)c1)N1CCC(N2CCCCC2)CC1 [Example 47, 3-(1,4′-bipiperidin-1′-ylcarbonyl)-N-(2-fluorophenyl)benzenesulfonamide]"
10,> 10 µM,"O=C(c1cccc(S(=O)(=O)Nc2cccc(F)c2)c1)N1CCC(N2CCCCC2)CC1 [Example 48, 3-(1,4′-bipiperidin-1′-ylcarbonyl)-N-(3-fluorophenyl)benzenesulfonamide]"
11,1.3 µM,"O=C(c1cccc(S(=O)(=O)Nc2ccc(C(F)(F)F)cc2)c1)N1CCC(N2CCCCC2)CC1 [Example 49, 3-(1,4′-bipiperidin-1′-ylcarbonyl)-N-[4-(trifluoromethyl)phenyl]benzenesulfonamide]"
12,0.6 µM,"O=C(c1cccc(S(=O)(=O)N2CCN3CCC[C@@H]3C2)c1)N1CCN(C(c2ccc(F)cc2)c2ccc(F)cc2)CC1 [Example 50, (8aR)-2-{[3-({4-[bis(4-fluorophenyl)methyl]piperazin-1-yl}carbonyl)phenyl]sulfonyl}octahydropyrrolo[1,2-a]pyrazine]"
13,0.9 µM,"O=C(c1cccc(S(=O)(=O)N2CCN3CCC[C@H]3C2)c1)N1CCN(C(c2ccc(F)cc2)c2ccc(F)cc2)CC1 [Example 51, (8aS)-2-{[3-({4-[bis(4-fluorophenyl)methyl]piperazin-1-yl}carbonyl)phenyl]sulfonyl}octahydropyrrolo[1,2-a]pyrazine]"

# Further lines, the molecule ahead of its results:
row,SMILES,IC50
1,"O=C(c1cccc(S(=O)(=O)Nc2ccc(F)cc2F)c1)N1CCN2CCC[C@@H]2C1 [Example 18, N-(2,4-difluorophenyl)-3-[(8aR)-hexahydropyrrolo[1,2-a]pyrazin-2(1H)-ylcarbonyl]benzenesulfonamide]",9.3 µM
2,"O=C(c1cccc(S(=O)(=O)Nc2ccccc2C(F)(F)F)c1)N1CCN2CCC[C@H]2C1 [Example 19, 3-[(8aS)-hexahydropyrrolo[1,2-a]pyrazin-2(1H)-ylcarbonyl]-N-[2-(trifluoromethyl)phenyl]benzenesulfonamide]",2.4 µM
3,"O=C(c1cccc(S(=O)(=O)Nc2cccc(Cl)c2)c1)N1CCN2CCC[C@H]2C1 [Example 21, N-(3-chlorophenyl)-3-[(8aS)-hexahydropyrrolo[1,2-a]pyrazin-2(1H)-ylcarbonyl]benzenesulfonamide]",5.9 µM
4,"O=C(c1cccc(S(=O)(=O)N2CCN(C(c3ccc(F)cc3)c3ccc(F)cc3)CC2)c1)N1CCN2CCC[C@@H]2C1 [Example 22, (8aR)-2-[3-({4-[bis(4-fluorophenyl)methyl]piperazin-1-yl}sulfonyl)benzoyl]octahydropyrrolo[1,2-a]pyrazine]",1.4 µM
5,"O=C(c1cccc(S(=O)(=O)N2CCN(C(c3ccc(F)cc3)c3ccc(F)cc3)CC2)c1)N1CCN2CCC[C@H]2C1 [Example 23, (8aS)-2-[3-({4-[bis(4-fluorophenyl)methyl]piperazin-1-yl}sulfonyl)benzoyl]octahydropyrrolo[1,2-a]pyrazine]",2.5 µM
6,"O=C(c1cccc(S(=O)(=O)N2CCN(C(c3ccccc3)c3ccccc3)CC2)c1)N1CCN2CCC[C@@H]2C1 [Example 24, (8aR)-2-{3-[(4-benzhydrylpiperazin-1-yl)sulfonyl]benzoyl}octahydropyrrolo[1,2-a]pyrazine]",1 µM
7,"O=C(c1cccc(S(=O)(=O)Nc2cccc(Cl)c2)c1)N1CCN2CCC[C@@H]2C1 [Example 25, N-(3-chlorophenyl)-3-[(8aR)-hexahydropyrrolo[1,2-a]pyrazin-2(1H)-ylcarbonyl]benzenesulfonamide]",8.9 µM
8,"O=C(c1cccc(S(=O)(=O)NCC(c2ccccc2)c2ccccc2)c1)N1CCN2CCC[C@@H]2C1 [Example 26, N-(2,2-diphenylethyl)-3-[(8aR)-hexahydropyrrolo[1,2-a]pyrazin-2(1H)-ylcarbonyl]benzenesulfonamide]",1.5 µM
9,"O=C(c1cccc(S(=O)(=O)Nc2ccccc2C(F)(F)F)c1)N1CCN2CCC[C@@H]2C1 [Example 27, 3-[(8aR)-hexahydropyrrolo[1,2-a]pyrazin-2(1H)-ylcarbonyl]-N-[2-(trifluoromethyl)phenyl]benzenesulfonamide]",> 10 µM
10,"O=C(c1cccc(S(=O)(=O)N2CCN(C(c3ccccc3)c3ccccc3)CC2)c1)N1CCN2CCC[C@H]2C1 [Example 28, (8aS)-2-{3-[(4-benzhydrylpiperazin-1-yl)sulfonyl]benzoyl}octahydropyrrolo[1,2-a]pyrazine]",1.9 µM
11,"O=C(c1cccc(S(=O)(=O)NCCC(c2ccccc2)c2ccccc2)c1)N1CCN2CCC[C@@H]2C1 [Example 29, N-(3,3-diphenylpropyl)-3-[(8aR)-hexahydropyrrolo[1,2-a]pyrazin-2(1H)-ylcarbonyl]benzenesulfonamide]",2.1 µM
12,"O=C(c1cccc(S(=O)(=O)NCCC(c2ccccc2)c2ccccc2)c1)N1CCN2CCC[C@H]2C1 [Example 30, N-(3,3-diphenylpropyl)-3-[(8aS)-hexahydropyrrolo[1,2-a]pyrazin-2(1H)-ylcarbonyl]benzenesulfonamide]",1.8 µM
13,"O=C(c1cccc(S(=O)(=O)NCC(c2ccccc2)c2ccccc2)c1)N1CCN2CCC[C@H]2C1 [Example 31, N-(2,2-diphenylethyl)-3-[(8aS)-hexahydropyrrolo[1,2-a]pyrazin-2(1H)-ylcarbonyl]benzenesulfonamide]",3.3 µM
14,"O=C(c1cc(S(=O)(=O)Nc2ccc(C(F)(F)F)cc2)ccc1Cl)N1CCN2CCC[C@@H]2C1 [Example 32, 4-chloro-3-[(8aR)-hexahydropyrrolo[1,2-a]pyrazin-2(1H)-ylcarbonyl]-N-[4-(trifluoromethyl)phenyl]benzenesulfonamide]",8.4 µM
15,"O=C(c1cccc(S(=O)(=O)NCCc2ccc(F)cc2)c1)N1CCN2CCC[C@H]2C1 [Example 33, N-[2-(4-fluorophenyl)ethyl]-3-[(8aS)-hexahydropyrrolo[1,2-a]pyrazin-2(1H)-ylcarbonyl]benzenesulfonamide]",5.7 µM
16,"O=C(c1ccc(Cl)c(S(=O)(=O)Nc2ccc(C(F)(F)F)cc2)c1)N1CCN2CCC[C@@H]2C1 [Example 34, 2-chloro-5-[(8aR)-hexahydropyrrolo[1,2-a]pyrazin-2(1H)-ylcarbonyl]-N-[4-(trifluoromethyl)phenyl]benzenesulfonamide]",6.2 µM
17,"O=C(c1cccc(S(=O)(=O)N2CCN(c3ccc(F)cc3)CC2)c1)N1CCN2CCC[C@H]2C1 [Example 35, (8aS)-2-(3-{[4-(4-fluorophenyl)piperazin-1-yl]sulfonyl}benzoyl)octahydropyrrolo[1,2-a]pyrazine]",4.8 µM
18,"O=C(c1cccc(S(=O)(=O)Nc2ccccc2-c2ccccc2)c1)N1CCN2CCC[C@H]2C1 [Example 36, N-1,1′-biphenyl-2-yl-3-[(8aS)-hexahydropyrrolo[1,2-a]pyrazin-2(1H)-ylcarbonyl]benzenesulfonamide]",4.7 µM
19,"O=C(c1cccc(S(=O)(=O)Nc2cccc(C(F)(F)F)c2)c1)N1CCN2CCCCC2C1 (centres unmarked) [Example 38, 3-(octahydro-2H-pyrido[1,2-a]pyrazin-2-ylcarbonyl)-N-[3-(trifluoromethyl)phenyl]benzenesulfonamide]",4.6 µM
